Columns and labels:
ABCG1 mRNA = ABCG1 mRNA levels normalized against β-actin mRNA, Taqman real-time RT-PCR, in mouse macrophages; format: cell-based; conditions: 2 μM, data not shown
Procedure: (§1) Where indicated, RNA oligonucleotides targeting both sequences were mixed and used to down-regulate ABCG1 or ABCG4 gene expression. The scrambled control RNA oligonucleotides also were obtained from Dharmacon. An independent set of siRNA targeting ABCG1 (5′[…]3′) or ABCG4 (5′[…]3′) was obtained from Qiagen and used where indicated. For cholesterol efflux assays, mouse peritoneal macrophages were plated in 24- or 48-well plates and cultured in 10% fetal bovine serum and DMEM media at 37° C. for 24 hours. Cells were then transfected with siRNA and LipofectAMINE 2000 at the indicated concentration and labeled with isotopic cholesterol (2 μCi/ml [^3H]cholesterol in 1% fetal bovine serum) in the presence or absence of TO901317 (2 μM) for 48 hours. Cells were washed twice and equilibrated for 30 minutes for the third wash, and then HDL or other acceptors were added for the indicated period. Levels of ABCG1 and ABCG4 mRNAs normalized against β-actin mRNA were determined using Taqman real-time quantititative RT-PCR. The primers and probes were from Applied Biosystems.

ABCG4 mRNA = ABCG4 mRNA levels normalized against β-actin mRNA, Taqman real-time RT-PCR, in mouse macrophages; format: cell-based; conditions: 2 μM, data not shown
Procedure: as §1

SMILES: O=S(=O)(c1ccccc1)N(CC(F)(F)F)c1ccc(C(O)(C(F)(F)F)C(F)(F)F)cc1 [T0901317]
- increase of mRNA levels of ABCG1 (ABCG1 mRNA): 3 fold
- increase of mRNA levels of ABCG4 (ABCG4 mRNA): 2 fold
